From US8642532B2, “Excipients for protein stabilization” (priority 2007, dated 2014)
Blank lines part the entries; values can stand above or below the compound they belong to.

What was measured:
BSA [1] = biological target: T1, BSA (Bos taurus, UniProt P02769); experiment: Screening of excipients at pH 6.2 for capacity to deter BSA from forming a gel; assay type: physicochemical, Bovine; conditions: for Results, 65° C., 60 minutes: BSA 175 mg/ml
T1 construct: BSA stock solution (35%, in water, 0.85% sodium chloride, from Sigma); purchased Sigma / Sigma Aldrich
T1 sequence (P02769 25-607): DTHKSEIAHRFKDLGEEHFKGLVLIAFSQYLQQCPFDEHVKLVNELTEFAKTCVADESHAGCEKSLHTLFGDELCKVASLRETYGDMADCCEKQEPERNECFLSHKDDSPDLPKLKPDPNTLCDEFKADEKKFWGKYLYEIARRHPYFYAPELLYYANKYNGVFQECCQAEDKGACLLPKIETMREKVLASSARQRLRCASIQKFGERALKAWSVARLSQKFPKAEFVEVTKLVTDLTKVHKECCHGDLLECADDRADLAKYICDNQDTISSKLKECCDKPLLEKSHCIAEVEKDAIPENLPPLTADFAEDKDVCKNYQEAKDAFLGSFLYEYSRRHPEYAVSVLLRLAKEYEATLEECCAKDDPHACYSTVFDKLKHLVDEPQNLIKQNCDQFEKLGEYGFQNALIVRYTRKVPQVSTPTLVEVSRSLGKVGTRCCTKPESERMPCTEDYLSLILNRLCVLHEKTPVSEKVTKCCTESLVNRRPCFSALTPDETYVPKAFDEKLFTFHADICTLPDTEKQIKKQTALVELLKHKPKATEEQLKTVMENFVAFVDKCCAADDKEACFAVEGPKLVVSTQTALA
Experimental: Various excipients were tested for their capacity to deter BSA from forming a gel, using sucrose as a reference, in malonic acid buffer (25 mM), incubated at 65° C. for 60 minutes. The excipients used were sucrose, 4-formylbenzene-1,3-disulfonic acid, 4-formylbenzoic acid, phenylglyoxylic acid, glyoxylic acid. (Tables 2 through 6).

[2] = biological target: T2, Myoglobin (Horse Skeleton) (Equus caballus, UniProt P68082); experiment: Inhibition of myoglobin thermal aggregation at 65° C.; assay type: physicochemical
T2 construct: Myoglobin (Horse Skeleton, Sigma) was made into a stock solution (10 mg/ml); purchased Sigma; host or cells: horse skeletal muscle ('Horse Skeleton' [sic])
T2 sequence (P68082 whole entry): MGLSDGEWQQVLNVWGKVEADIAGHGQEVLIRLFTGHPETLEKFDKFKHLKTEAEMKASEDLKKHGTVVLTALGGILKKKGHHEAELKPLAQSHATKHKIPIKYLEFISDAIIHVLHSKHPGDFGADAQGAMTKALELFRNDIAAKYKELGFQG
Experimental: Myoglobin (Horse Skeleton, Sigma) was made into a stock solution (10 mg/ml) in sodium bicarbonate buffer (0.1 M, pH 9.0). This solution (0.5 ml) was then mixed with various excipient stock solutions (0.10 ml) to provide a series of test samples with the same final myoglobin concentration and varying excipient concentrations ([X]). Then the samples in sealed test tubes were inserted into wells of heating block that was pre-set at 65° C., and the incubation was continued over a period of time, to observe the formation of fibrillation precipitates (PPT).

BSA [3] = biological target: T1, BSA; experiment: Inhibition of BSA thermal aggregation (gel/solid formation) at 65° C. over 60 min, phosphate buffer; assay type: physicochemical, Bovine
Experimental: […] All samples were inserted into wells of heating block that was preset at 65° C.
Ten microliter of the above clear solutions were each diluted with 1.0 ml of phosphate buffer (pH 7.4), and a reference sample of BSA solutions of 2.5 mg/ml was prepared in the same buffer. Small aliquot of 0.10 ml of all the five diluted samples were analyzed on SEC HPLC (TSK gel G 3000 SW, 5 mm×300 mm), eluted with 50 mM sodium phosphate buffer (pH 7.4) containing 0.85% sodium chloride at flow rate of 1.0 ml/min monitored at 280 nm.

[4] = biological target: T3, zinc-free recombinant human insulin, NovoRapid, LisPro (Homo sapiens, UniProt P01308); experiment: Inhibition of insulin fibrillation by glyoxylic acid, rotator at room temperature; assay type: physicochemical; conditions: 20 mM glyoxylic acid, phosphate buffer pH 7.0, room temperature, rotator 12 rotations per minute
T3 construct: A solution of zinc-free recombinant human insulin was prepared in phosphate buffer
T3 sequence (P01308 25-54 limits assumed): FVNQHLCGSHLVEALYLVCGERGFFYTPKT
T3 sequence (P01308 90-110 limits assumed): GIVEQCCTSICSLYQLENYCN
Experimental: (§1) A solution of zinc-free recombinant human insulin was prepared in phosphate buffer (50 mM, pH 7.0, no sodium chloride) at concentration of 1.0 mg/ml, containing 0 and 20 mM glyoxylic acid. Commercial NovoRapid (Novo Nordisk, 100 IU/ml) was diluted with phosphate buffer to 25 IU/ml, with and without glyoxylic acid (0 or 20 mM). Humalog 25 (100 IU/ml, Eli Lilly) was centrifuged to collect the supernatant, and the LisPro concentration was assumed to be 25 IU/ml. Then two LisPro samples were made with and without glyoxylic acid (0 or 20 mM) with assumed final LisPro concentration of 20 IU/ml. Each of the samples (1.0 ml) was transferred into a capped 10 ml test tube, and loaded onto a rotator that was set at 12 rotations per minute at room temperature.

Humulin R (zinc insulin) = biological target: T4, Humulin R (zinc insulin) (Homo sapiens, UniProt P01308); experiment: Inhibition of zinc insulin fibrillation by glyoxylic acid, rotator at room temperature; assay type: physicochemical; conditions: containing glyoxylic acid, conditions as in Example 11, rotator
T4 construct: purchased
T4 sequence (P01308 25-54 limits assumed): as the sequence (P01308 25-54 limits assumed) above
Experimental: as §1, with “temperature. […] Conditions were as in Example 11 above, but using commercial Humulin R (100 IU/ml).” for “temperature.”

[5] = biological target: T5, Bovine Serum Albumin (BSA) (Bos taurus, UniProt P02769); experiment: Inhibition of thermal aggregation of BSA, SEC HPLC; assay type: physicochemical; conditions: 65° C., BSA 1.75 mg/ml, excipient 11.25 mg/ml, pH 7.4
T5 construct: BSA stock solution (35%, in water, 0.85% sodium chloride, from Sigma); purchased Sigma / Sigma Aldrich
T5 sequence (P02769 25-607): as the sequence (P02769 25-607) above
Experimental: A 0.050 ml of BSA stock solution (35%, in water, 0.85% sodium chloride, from Sigma) was diluted into 0.450 ml of sodium phosphate buffer (50 mM, pH 7.4, 0.85% sodium chloride) to give a BSA solution at concentration of 35 mg/ml. An excipient, 2-formylbenzenesulfonic acid, sodium salt (Aldrich, 75%), was made into a solution in water (HPLC grade) at concentration of 75 mg/ml, and its pH was adjusted to 8 using dilute hydrochloric acid.
An aliquot of 0.050 ml of the above stock BSA solution (35 mg/ml) was diluted into PBS buffer (pH 7.4, 0.80 ml), and 0.15 ml of the excipient solution was added to it to make a BSA concentration of 1.75 mg/ml, and the excipient of 11.25 mg/ml. A separate sample was prepared without the addition of the excipient. Both samples in capped glass tubes are incubated at 65° C. […] […] SEC column: TSK gel G3000 SW, 7.5×300 mm, Tosoh Biosciences, part number 05789. Mobile phase: 50 mM phosphate buffer, pH 7.4, 0.85% sodium chloride. Flow rate: 1.0 ml/min. Detection: 280 nm Instrument: BuckChrom BLC-20.

BSA [6] = biological target: T1, BSA; experiment: Reduction of aggregation of BSA induced by t-butanol, SEC HPLC; assay type: physicochemical, Bovine; conditions: BSA precipitated with t-butanol, re-dissolved in PBS
Experimental: To three separate test tubes containing 0.050 ml of BSA (35%, 0.85% sodium chloride) and 0.050 ml of phosphate buffer (50 mM, pH 7.4), were respectively added 0.010 ml of water, 0.010 mll of 2-formylbenzenesulfonic acid sodium salt (75 mg/ml, pH 8), and 0.010 ml of pyridoxal phosphate (100 mg/ml, pH 7.4). To each of the three tubes were then added 0.50 ml of PEG solution (75%, molecular weight 3400) followed by centrifugation to give some precipitate. The three supernatants were collected to have BSA at saturated concentrations, and to them were separately added 0.50 ml of t-butanol to have more BSA precipitates after centrifugation. The crops of precipitates from t-butanol were washed with t-butanol twice (0.75 ml each) and re-dissolved in PBS buffer (50 mM sodium phosphate, pH 7.4, 0.85% sodium chloride) for SEC HPLC analysis. Plain BSA produced about 75% of aggregates, the sample with 2-formylbenzenesulfonic acid produced about 60% of aggregates, the sample with pyridoxal phosphate produced less than 50% of aggregates.

[7] = malonate 25 mM pH 6.2, excipient 9.4 mg/ml
[8] = malonate 25 mM pH 6.2, excipient 18.8 mg/ml
[9] = malonate 25 mM pH 6.2, excipient 37.5 mg/ml
[10] = pH 9.0, 5 weeks, one cell for all [X] of the excipient
[11] = pH 9.0, 1 days, one cell for all [X] of the excipient
[12] = pH 9.0, 2 days, one cell for all [X] of the excipient
[13] = pH 9.0, 4 days, one cell for all [X] of the excipient

Results, 65° C., 60 minutes (BSA [1]; malonate 25 mM pH 6.2, excipient 75 mg/ml): Pale Gel
Results, 65° C., 60 minutes (BSA [1]; malonate 25 mM pH 6.2, excipient 125 mg/ml): Pale Gel
Results, 65° C., 60 minutes (BSA [1]; malonate 25 mM pH 6.2, excipient 175 mg/ml): Gel
SMILES: OC[C@H]1O[C@@](CO)(O[C@H]2O[C@H](CO)[C@@H](O)[C@H](O)[C@H]2O)[C@@H](O)[C@@H]1O [Sucrose, sucrose, reference compound]
Power to prevent BSA from turning into gel or solid (summary in words) (BSA [1]; pH 6.2, 65° C., 60 minutes, all concentrations tested): does not have strong power to prevent BSA from turning into gel or solid

Results, 65° C., 60 minutes (BSA [1]; [7]): Clear
Results, 65° C., 60 minutes (BSA [1]; [8]): Clear
Results, 65° C., 60 minutes (BSA [1]; [9]): Clear
Formation of fibrillation precipitates (PPT) [2, 10]: Precipitate
Formation of fibrillation precipitates (PPT) [2, 11]: Precipitate (PPT)
Formation of fibrillation precipitates (PPT) [2, 12]: Precipitate
Formation of fibrillation precipitates (PPT) [2, 13]: Precipitate
SMILES: O=C(O)C(=O)c1ccccc1 [Phenylglyoxylic Acid]

Formation of fibrillation precipitates (PPT) [2, 10]: Precipitate
Formation of fibrillation precipitates (PPT) [2, 11]: Precipitate
Formation of fibrillation precipitates (PPT) [2, 12]: Precipitate
Formation of fibrillation precipitates (PPT) [2, 13]: Precipitate
SMILES: O=Cc1cc(C(=O)O)ccc1O [3-Formyl-4-hydroxylbenzoic Acid]

Results, 65° C., 60 minutes (BSA [3]; BSA 262.5 mg/ml, phosphate 25 mM pH 7.4, excipient 12.5 mg/ml): Clear
Results, 65° C., 60 minutes (BSA [3]; BSA 262.5 mg/ml, phosphate 25 mM pH 7.4, excipient 25 mg/ml): Clear
Results, 65° C., 60 minutes (BSA [3]; BSA 262.5 mg/ml, phosphate 25 mM pH 7.4, excipient 50 mg/ml): Clear
Results, 65° C., 60 minutes (BSA [3]; repeated at pH 6.8, excipient 12.5 mg/ml): remained as clear solution
Results, 65° C., 60 minutes (BSA [1]; malonate 25 mM pH 6.2, excipient 7.1 mg/ml): Clear
Results, 65° C., 60 minutes (BSA [1]; malonate 25 mM pH 6.2, excipient 14.4 mg/ml): Clear
Results, 65° C., 60 minutes (BSA [1]; malonate 25 mM pH 6.2, excipient 28.8 mg/ml): Clear
Rank in deterring myoglobin from fibrillation (summary in words) ([2]; pH 9.0): best among this group
Formation of fibrillation precipitates (PPT) [2, 10]: Clear
Formation of fibrillation precipitates (PPT) [2, 11]: Clear
Formation of fibrillation precipitates (PPT) [2, 12]: Clear
Formation of fibrillation precipitates (PPT) [2, 13]: Clear
SMILES: O=Cc1ccc(S(=O)(=O)O)cc1S(=O)(=O)O [4-Formyl-1,3-benzenedisulfonic Acid, 4-Formyl-1,3-benzenedisulfonic acid]
Results, 65° C., 60 minutes (BSA [3]; BSA 262.5 mg/ml, phosphate 25 mM pH 7.4, excipient 12.5 mg/ml, listed as 4-Formyl-1,3-benzenedisulfonic acid): prevents BSA (262 mg/ml) from turning into gellified solid

Results, 65° C., 60 minutes (BSA [1]; malonate 25 mM pH 6.2, excipient 5.8 mg/ml): Clear
Results, 65° C., 60 minutes (BSA [1]; malonate 25 mM pH 6.2, excipient 11.5 mg/ml): Clear
Results, 65° C., 60 minutes (BSA [1]; malonate 25 mM pH 6.2, excipient 23 mg/ml): Clear
Formation of fibrillation precipitates (PPT) [2, 10]: Precipitate
Formation of fibrillation precipitates (PPT) ([2]; pH 9.0, 1 days, higher part of [X] 16.7/41.7/83.3 mM (cell span not shown)): Clear
Formation of fibrillation precipitates (PPT) ([2]; pH 9.0, 1 days, lower part of [X] 16.7/41.7/83.3 mM (cell span not shown)): PPT
Formation of fibrillation precipitates (PPT) ([2]; pH 9.0, 2 days, higher part of [X] 16.7/41.7/83.3 mM (cell span not shown)): Clear
Formation of fibrillation precipitates (PPT) ([2]; pH 9.0, 2 days, lower part of [X] 16.7/41.7/83.3 mM (cell span not shown)): PPT
Formation of fibrillation precipitates (PPT) [2, 13]: Precipitate
SMILES: O=CC(=O)O [Glyoxylic Acid]
Appearance of insulin solution (fibrillation) [4]: stayed in clear solutions beyond four weeks
Appearance of Humulin R solution (fibrillation) (Humulin R (zinc insulin)): remained clear six days before turning cloudy

Results, 65° C., 60 minutes (BSA [1]; [7]): Clear
Results, 65° C., 60 minutes (BSA [1]; [8]): Clear
Results, 65° C., 60 minutes (BSA [1]; [9]): Clear
SMILES: O=Cc1ccc(C(=O)O)cc1 [4-Formylbenzoic acid]

BSA aggregation on SEC HPLC ([5]; 40 minutes): no significant change of BSA
Aggregates produced (BSA [6]): about 60%
SMILES: O=Cc1ccccc1S(=O)(=O)[O-].[Na+] [2-formylbenzenesulfonic acid, 2-formylbenzenesulfonic acid, sodium salt]
BSA aggregation on SEC HPLC ([5]; 60 minutes): aggregates started to show up in an insignificant amount
